Patent US9138659B2, “Compositions, methods, and systems relating to controlled crystallization and/or nucleation of molecular species” (Massachusetts Institute of Technology, priority 2010, dated 2015)
≈ marks a conversion by molar mass, not a printed value.

Experiments:
Type in all cases: physicochemical
[1] = Solubility of ASA and ACM
[2] = Nucleation induction time of ASA / ACM with PEGDA or PEGDA-co-AM microgels in 38/62 ethanol/water; conditions: for Average nucleation induction time τ (stretched exponential fit): ASA S=2.1; for τ1 (two-exponential fit) / τ2 (two-exponential fit): ASA; for optimum mesh size for inducing ASA nucleation: PEGDA particles
Text: Nucleation kinetics of model compounds was investigated by measuring the nucleation induction time probability distribution. Nucleation induction time is generally time elapsed prior to the formation of a detectable amount of the new crystalline phase. It is a useful indicator of the surface nucleation activity because it can be dramatically shortened when the presence of an interface lowers the free energy barrier of nucleation. Due to the stochastic nature of nucleation events, a large number of experiments were performed to obtain the probability distribution of nucleation induction time. To obtain the average induction time τ, statistical analysis on the induction time data was conducted based on the understanding that nucleation follows a Poisson distribution. According to Poisson statistics, the probability for a nucleation event to occur beyond time t is P=exp(−t/τ), which implies that the fraction of vials without nucleation at time t exponentially decays as a function of time, where the scaling factor for time is the average induction time.
For determining the statistical analysis of aspirin nucleation induction time with PEGDA particles of various mesh sizes (particles denoted by Mn), 1.9 mL of 38 mg/ml ASA solution in 38/62 ethanol/water (v/v) with 15 μg/mL PEGDA particles was cooled at a rate of 5° C./min from 35° C. to 15° C. to achieve a supersaturation of 2.1. The solution was stirred at 700 rpm. The onset of nucleation was detected by an IR probe which measures the transmission signal through the solution. A total of 10 vials were cycled for 5-10 times to yield 50-100 nucleation induction time measurements for the statistical analysis.
The nucleation rate, J, is given by J=1/τV, where τ the average induction time (Table 1) and V the volume of solution. For this equation to be valid, the assumption is that the crystal growth rate is much faster than the nucleation rate, which is the case for ASA. […] Other crystallization conditions were kept the same.
[…] The solution was stirred at 700 rpm. The onset of nucleation was detected by an IR probe which measures the transmission signal through the solution. A total of 10 vials were cycled for 5-10 times to yield 50-100 nucleation induction time data for the statistical analysis.
Effect of polymer gels on nucleation induction time statistics: To evaluate the impact of polymer-solute interactions on nucleation kinetics, induction times of ASA and ACM were measured with microgels of a series average mesh sizes before and after chemical modification suspended in respective supersaturated solutions. […] For each system, a large number of experiments (50-100) were conducted to obtain the induction time probability distribution. The nucleation induction time generally follows the Poisson distribution. However, deviations can occur, as observed in this study, when there is more than one type of nucleation sites in a sample, giving rise to multiple Poisson processes with different characteristic time scales.
For samples with PEGMDA microgels, the nucleation induction time distributions reported in previous work can be faithfully described by stretched exponentials (Tables 5 and 6), P=exp[−(t/τ)^β], where P is the probability to observe no crystallization event within time t, τ the average induction time. The stretched exponential exponent β served as a measure for the spread of time scales characterizing the nucleation process, or the distribution of kinetic barriers arisen from the heterogeneity of the system. Such heterogeneity can be attributed to the heterogeneity of the polymer microstructure identified using SANS, which resulted from a distribution of nucleation sites arising from spatial variations in both the mesh size and chemical composition of the hydrogel at nanometer length scales. Note that β varies with the average mesh size of the microgel. […]

[3] = Nucleation induction time of aspirin on nanopatterned AA-co-DVB polymer films from butyl acetate; conditions: for Nucleation induction time τ: aspirin, butyl acetate
Text: The effect of nanopatterned polymer films on the kinetics of nucleation from solution was quantified by measuring the nucleation induction time of aspirin, a representative small organic molecule. The polymer film was made from acrylic acid crosslinked with divinylbenzene (AA-co-DVB), with which aspirin could interact via hydrogen bonding. Polymer crosslinking was designed to avoid solvent uptake and to maintain the surface morphology when in contact with the solution. Due to the stochastic nature of nucleation events, 20 to 50 samples were tested simultaneously to obtain the probability distribution for the nucleation induction time. The average induction time, τ, was determined from a statistical analysis on the induction time data assuming that nucleation follows a Poisson distribution, P(t)=exp(−t/τ). The nucleation rate, J, was calculated from τ via J=1/τV, where V is the volume of solution, with the assumption that the time scale of nucleation is much longer than that of crystal growth, valid for this system.
In FIG. 14: Effect of the nanopore shape in AA-co-DVB polymer films on the nucleation kinetics of aspirin: flat vs. spherical pores (left); spherical pores vs. hexagonal pores and square pores of the same size (right). J is the nucleation rate, in number of nuclei per ml of solution per hour, calculated from the average nucleation induction time τ by J=1/τV, where V is the volume of solution. The standard errors of J were calculated from the regression on the induction time probability distribution following the Poisson distribution.
Nucleation Induction Time Measurement: Once synthesized, the polymer film with its substrate was inserted vertically into a 1 ml glass shell vial containing 200 μl 47 mg/ml aspirin solution in butyl acetate. For each polymer sample, 20-50 vials were assembled and immersed in a circulator stabilized at 50±0.1° C. to dissolve any pre-existing crystals, and then the solution was quench cooled to 5±0.1° C. by immersing into a second circulator. The number of vials in which crystallization occurred was recorded as a function of time. All the operations involving exposing polymer films, aspirin solutions and shell vials to the atmosphere were conducted inside a Bio Safety Cabinet to reduce impurity contamination to the lowest level. Efforts were made to clean all components before usage and aspirin solutions were filtered with an Acrodisc 0.2 μm PTFE syringe filter.

[4] = PEGDA-co-AM microgels M 130 g/mol
[5] = PEGDA-co-AM microgels M 200 g/mol
[6] = PEGDA-co-AM microgels M 400 g/mol
[7] = PEGDA-co-AM microgels M 575 g/mol
[8] = PEGDA-co-AM microgels M 700 g/mol

solubility ([1]; aqueous with cosolvent or surfactant or cyclodextrin, 38/62 (v/v) ethanol/water mixture at 25° C): 32 mg/mL (≈ 178 mM)
solubility in water ([1]; water at 3° C): essentially insoluble
average nucleation induction time τ ([2]; ASA S = 2.1, Bulk (no particles), 38/62 ethanol/water): ∞
average nucleation induction time τ ([2]; ASA S = 2.1, PEGDA microparticles Mn 130 g/mol, 38/62 ethanol/water): ∞
average nucleation induction time τ ([2]; ASA S = 2.1, PEGDA microparticles Mn 200 g/mol, 38/62 ethanol/water): 910 ± 40 min
average nucleation induction time τ ([2]; ASA S = 2.1, PEGDA microparticles Mn 400 g/mol, 38/62 ethanol/water): 60 min
average nucleation induction time τ ([2]; ASA S = 2.1, PEGDA microparticles Mn 400 g/mol, 38/62 ethanol/water, listed as ASA): 63 ± 3 min
average nucleation induction time τ ([2]; ASA S = 2.1, PEGDA microparticles Mn 575 g/mol, 38/62 ethanol/water): 1900 ± 100 min
average nucleation induction time τ ([2]; ASA S = 2.1, PEGDA microparticles Mn 700 g/mol, 38/62 ethanol/water): 6600 ± 1100 min
average nucleation induction time τ ([2]; ASA S = 3.3, Bulk (no particles), 38/62 ethanol/water): 2500 ± 600 min
average nucleation induction time τ ([2]; ASA S = 3.3, PEGDA microparticles Mn 130 g/mol): 330 ± 60 min
average nucleation induction time τ ([2]; ASA S = 3.3, PEGDA microparticles Mn 200 g/mol): 52 ± 3 min
average nucleation induction time τ ([2]; ASA S = 3.3, PEGDA microparticles Mn 400 g/mol): 123 ± 7 min
average nucleation induction time τ ([2]; ASA S = 3.3, PEGDA microparticles Mn 700 g/mol): 240 ± 20 min
Average nucleation induction time τ (stretched exponential fit) ([2]; Bulk / PEGDA microgels M 130 g/mol): Not detectable
Average nucleation induction time τ (stretched exponential fit) ([2]; PEGDA microgels M 200 g/mol): 1052 min
Average nucleation induction time τ (stretched exponential fit) ([2]; PEGDA microgels M 400 g/mol): 66.7 min
Average nucleation induction time τ (stretched exponential fit) ([2]; PEGDA microgels M 575 g/mol): 3500 min
Average nucleation induction time τ (stretched exponential fit) ([2]; PEGDA microgels M 700 g/mol): 210000 min
τ1 (two-exponential fit) [2, 4]: 170 min
τ2 (two-exponential fit) [2, 4]: 4900 min
τ1 (two-exponential fit) [2, 5]: 21 min
τ2 (two-exponential fit) [2, 5]: 99 min
τ1 (two-exponential fit) [2, 6]: 39 min
τ2 (two-exponential fit) [2, 6]: 400 min
τ1 (two-exponential fit) [2, 7]: 51 min
τ2 (two-exponential fit) [2, 7]: 470 min
τ1 (two-exponential fit) [2, 8]: 33 min
τ2 (two-exponential fit) [2, 8]: 720 min
optimum mesh size for inducing ASA nucleation ([2]; 8° C, higher supersaturation (3.4)): 10 Å
optimum mesh size for inducing ASA nucleation ([2]; 15° C, supersaturation 2.1): approximately 15 Å
promotion of nucleation kinetics when AM co-monomer was introduced into the PEGDA matrix ([2]; PEGDA-co-AM vs PEGDA microgels): up to four orders of magnitude
best enhancement in nucleation kinetics by addition of PEGDA particles ([2]; vs bulk, Table 2): many orders of magnitudes
enhancement of aspirin nucleation rate relative to spherical pores ([3]; AA-co-DVB film with hexagonal pores): more than an order of magnitude
enhancement of aspirin nucleation rate relative to spherical pores ([3]; AA-co-DVB film with square pores): three-fold
Nucleation induction time τ ([3]; AA-co-DVB film with hexagonal nanopores, 15 nm): 26 ± 7 min
Nucleation induction time τ ([3]; AA-co-DVB film with square nanopores, 125 nm): 138 ± 12 min
SMILES: CC(=O)Oc1ccccc1C(=O)O [aspirin]
